Reference: ChEMBL document CHEMBL5046256, “The discovery of potent small molecule cyclic urea activators of STING” (Eur J Med Chem, 2022)
Activity calls are given as the source filed them. The rule behind the calls is not given here.

Assays:
Assay type in all cases: cell-based
[1] = Agonist activity against human STING R232H variant transfected in HEK-293T cells co-expressing ISRE.ISG54 by luciferase reporter gene assay
[2] = tested on: HEK-293T; assay: Agonist activity against human STING R232H variant transfected in HEK-293T cells co-expressing ISRE.ISG54 at 5 uM by luciferase reporter gene assay relative to control
[3] = tested on: HEK-293T; assay: Agonist activity against human STING R232H variant transfected in HEK-293T cells co-expressing ISRE.ISG54 at 1 uM by luciferase reporter gene assay relative to control

SMILES	EC50 ([1]; Homo sapiens, HEK-293T) [nM]	Activity [2]	also measured
Cc1ncc(CN2C(=O)N(C)Cc3ccc(C(=O)NCc4c(F)cc(F)cc4F)cc32)s1	1710	–	–
CN1Cc2ccc(C(=O)NCc3ccc4c(c3)NCCO4)cc2N(Cc2c(F)cccc2Cl)C1=O	–	inactive	–
CN1Cc2ccc(C(=O)NCc3c(F)cc(F)cc3F)cc2N(Cc2ccccc2Cl)C1=O	–	–	Activity ([2]; filed as agonist): 76%
CN1Cc2ccc(C(=O)NCc3cccc(-c4ncco4)c3)cc2N(Cc2c(F)cccc2Cl)C1=O	–	inactive	–
CN1Cc2ccc(CNCc3c(F)cc(F)cc3F)cc2N(Cc2c(F)cccc2Cl)C1=O	–	3%	–
CN1Cc2ccc(C(=O)NCc3c(F)cc(F)cc3F)cc2N(Cc2c(F)cccc2C#N)C1=O	–	–	Activity [3]: 15%
CC1c2ccc(C(=O)NCc3c(F)cc(F)cc3F)cc2N(Cc2ccccc2F)C(=O)N1C (racemic)	153	–	–
Cc1cc(CN2C(=O)N(C)C(C)c3ccc(C(=O)NCc4c(F)cc(F)cc4F)cc32)ccn1 (racemic) [listing 1 of 2 here]	–	–	Activity ([2]; filed as agonist): 61%
CN1Cc2ccc(C(=O)NCc3cccc(N4CCOCC4)c3)cc2N(Cc2c(F)cccc2Cl)C1=O	–	inactive	–
Cc1ccc(CNC(=O)c2ccc3c(c2)N(Cc2cc(F)cc(F)c2)C(=O)N(C)C3)o1	–	16%	–
CC1c2ccc(C(=O)NCc3c(F)cc(F)cc3F)cc2N(Cc2ccc(Cl)cc2F)C(=O)N1C (stereo not given)	–	–	Activity ([3]; filed as agonist): 65%
CN1Cc2ccc(C(=O)NCc3c(F)cc(F)cc3F)cc2N(Cc2cn3ccccc3n2)C1=O	–	16%	–
CN1Cc2ccc(C(=O)NCc3cc4ccccc4o3)cc2N(Cc2cc(F)cc(F)c2)C1=O	2260	–	–
Cn1cnc(N2Cc3ccc(C(=O)NCc4c(F)cc(F)cc4F)cc3N(Cc3c(F)cccc3Cl)C2=O)c1	–	inactive	–
CN1Cc2ncc(C(=O)NCc3c(F)cc(F)cc3F)cc2N(Cc2cc(F)cc(F)c2)C1=O	–	19%	–
CN1Cc2ccc(C(=O)NCc3ccc(C(F)(F)F)nc3)cc2N(Cc2c(F)cccc2Cl)C1=O	–	inactive	–
Cc1ccc(F)c(CN2C(=O)N(C)C(C)c3ccc(C(=O)NCc4c(F)cc(F)cc4F)cc32)n1 (stereo not given)	–	–	Activity ([3]; filed as agonist): 60%
O=C(NCc1c(F)cc(F)cc1F)c1ccc2c(c1)N(Cc1cc(F)cc(F)c1)C(=O)N(C1CC1)C2	–	13%	–
CN1Cc2ccc(C(=O)NCc3ccc4c(c3)CC(=O)N4)cc2N(Cc2c(F)cccc2Cl)C1=O	–	2%	–
Cc1cc(CN2C(=O)N(C)Cc3ccc(C(=O)NCc4c(F)cc(F)cc4F)cc32)on1	–	–	Activity [3]: 12%
O=C(NCc1c(F)cc(F)cc1F)c1ccc2c(c1)N(Cc1c(F)cccc1Cl)C(=O)N(O)C2	–	8%	–
Cc1cc(CN2C(=O)N(C)Cc3ccc(C(=O)NCc4c(F)cc(F)cc4F)cc32)no1	–	–	Activity ([2]; filed as agonist): 68%
CN1Cc2ccc(C(=O)NCc3cccc(N4CCCC4=O)c3)cc2N(Cc2c(F)cccc2Cl)C1=O	–	inactive	–
CC1c2ccc(C(=O)NCc3c(F)cc(F)cc3F)cc2N(Cc2c(F)cccc2F)C(=O)N1C (racemic) [listing 1 of 2 here]	–	–	Activity ([3]; filed as agonist): 64%
CC1c2ccc(C(=O)NCc3c(F)cc(F)cc3F)cc2N(Cc2cc(F)cc(F)c2)C(=O)N1C (stereo in doubt; 68)	–	–	EC50 ([1]; hek-293t): 117 nM
CN1Cc2ccc(C(=O)NCc3ccccc3F)cc2N(Cc2c(F)cccc2Cl)C1=O	–	–	Activity [3]: 34%

SMILES	EC50 ([1]; Homo sapiens, HEK-293T) [nM]	Activity [2]	also measured
CN1Cc2ccc(C(=O)NCc3c(F)cc(F)cc3F)cc2N(Cc2cn(C)cn2)C1=O	–	7%	–
CC1c2ccc(C(=O)NCc3c(F)cc(F)cc3F)cc2N(Cc2ccc(F)cc2Cl)C(=O)N1C (stereo not given)	–	25%	–
CC1c2ccc(C(=O)NCc3c(F)cc(F)cc3F)cc2N(Cc2c(F)cccc2Cl)C(=O)N1C (stereo not given)	29	–	–
CN1Cc2ncc(C(=O)NCc3c(F)cc(F)cc3F)cc2N(Cc2c(F)cccc2Cl)C1=O	–	–	Activity ([2]; filed as agonist): 76%
CN1Cc2ccc(C(=O)NCc3cccc4c3OCO4)cc2N(Cc2c(F)cccc2Cl)C1=O	–	4%	–
CON1Cc2ccc(C(=O)NCc3c(F)cc(F)cc3F)cc2N(Cc2c(F)cccc2Cl)C1=O	–	–	Activity ([2]; filed as agonist): 82%
CN1Cc2ccc(C(=O)NCc3ccc4cnn(C)c4c3)cc2N(Cc2c(F)cccc2Cl)C1=O	–	inactive	–
CN1Cc2ccc(C(=O)NCc3cccc(C(=O)N4CCCC4)c3)cc2N(Cc2c(F)cccc2Cl)C1=O	–	inactive	–
Cc1cc(CN2C(=O)N(C)Cc3ccc(C(=O)NCc4c(F)cc(F)cc4F)cc32)nn1C	–	14%	–
CC1c2ccc(C(=O)NCc3c(F)cc(F)cc3F)cc2N(Cc2ccccc2F)C(=O)N1C (stereo in doubt; 98)	–	–	EC50 ([1]; hek-293t): 122 nM
CN1Cc2ccc(C(=O)NCc3cccc(-n4cccn4)c3)cc2N(Cc2c(F)cccc2Cl)C1=O	–	inactive	–
CN1Cc2ccc(C(=O)NCc3ccc(N4CCCC4=O)cc3)cc2N(Cc2c(F)cccc2Cl)C1=O	–	inactive	–
Cc1nc(CN2C(=O)N(C)Cc3ccc(C(=O)NCc4c(F)cc(F)cc4F)cc32)co1	–	13%	–
CN1Cc2ccc(C(=O)NCc3cccc(-n4cncn4)c3)cc2N(Cc2c(F)cccc2Cl)C1=O	–	inactive	–
CN1Cc2ccc(C(=O)NCc3c(F)cc(F)cc3F)cc2N(Cc2cccc(C(N)=O)c2)C1=O	–	–	Activity ([2]; filed as agonist): 57%
CN1Cc2ccc(C(=O)NCc3cnc(-c4ccccc4)s3)cc2N(Cc2c(F)cccc2Cl)C1=O	–	inactive	–
CC1c2ccc(C(=O)NCc3c(F)cc(F)cc3F)cc2N(Cc2cc(F)cc(F)c2)C(=O)N1C (racemic)	–	–	EC50 ([1]; hek-293t): 470 nM
Cc1cc(CN2C(=O)N(C)C(C)c3ccc(C(=O)NCc4c(F)cc(F)cc4F)cc32)ccn1 (racemic) [listing 2 of 2 here]	–	–	EC50 ([1]; hek-293t): 247 nM
C[C@H]1c2ccc(C(=O)NCc3c(F)cc(F)cc3F)cc2N(Cc2c(Cl)c[nH]c(=O)c2F)C(=O)N1C	–	16%	–
CN1Cc2ccc(C(=O)NCc3c(F)cc(F)cc3F)cc2N(Cc2ccnn2C)C1=O	–	7%	–
Cc1cccc(CN2C(=O)N(C)Cc3ccc(C(=O)NCc4c(F)cc(F)cc4F)cc32)c1F	369	–	–
CC1c2ccc(C(=O)NCc3c(F)cc(F)cc3F)cc2N(Cc2c(F)cccc2F)C(=O)N1C (stereo in doubt; 72)	–	–	EC50 ([1]; hek-293t): 51 nM
CN1Cc2ccc(C(=O)NCc3ccc4occc4c3)cc2N(Cc2c(F)cccc2Cl)C1=O	–	–	Activity ([2]; filed as agonist): 70%
CN1Cc2ccc(C(=O)NCc3ccc4ccoc4c3)cc2N(Cc2c(F)cccc2Cl)C1=O	–	–	Activity ([2]; filed as agonist): 84%
CC1c2ccc(C(=O)NCc3c(F)cc(F)cc3F)cc2N(Cc2c(F)cccc2F)C(=O)N1C (racemic) [listing 2 of 2 here]	–	–	EC50 ([1]; hek-293t): 21 nM
Cc1cc(CN2C(=O)N(C)C(C)c3ccc(C(=O)NCc4c(F)cc(F)cc4F)cc32)ccn1 (stereo in doubt; 74)	–	–	EC50 ([1]; hek-293t): 816 nM

The next lines start with results.

EC50 ([1]; Homo sapiens, HEK-293T) [nM]	SMILES	Activity [2]	also measured
248	COc1cccc(F)c1CN1C(=O)N(C)Cc2ccc(C(=O)NCc3c(F)cc(F)cc3F)cc21	–	–
196	CN1Cc2ccc(C(=O)NCc3c(F)cc(F)cc3F)cc2N(Cc2ccc(F)cc2)C1=O	–	–
47	Cc1nccc(CN2C(=O)N(C)[C@@H](C)c3ccc(C(=O)NCc4c(F)cc(F)cc4F)cc32)c1F	–	–
2340	O=C(NCc1c(F)cc(F)cc1F)c1ccc2c(c1)N(Cc1cc(F)cc(F)c1)C(=O)NC2	–	–
403	Cc1ccc(Cl)c(CN2C(=O)N(C)Cc3ccc(C(=O)NCc4c(F)cc(F)cc4F)cc32)c1F	–	Activity ([2]; filed as agonist): 68%
47	Cc1cccc(CN2C(=O)N(C)[C@@H](C)c3ccc(C(=O)NCc4c(F)cc(F)cc4F)cc32)c1F	–	–
274	CN1Cc2ccc(C(=O)NCc3c(F)cc(F)cc3F)cc2N(Cc2cc(F)cc(F)c2)C1=O	–	–
388	CC1c2ccc(C(=O)NCc3c(F)cc(F)cc3F)cc2N(Cc2ccncc2F)C(=O)N1C (stereo not given)	–	–
191	CN1Cc2ccc(C(=O)NCc3c(F)cc(F)cc3F)cc2N(Cc2ccccc2F)C1=O	–	–
133	CN1Cc2ccc(C(=O)NCc3c(F)cc(F)cc3F)cc2N(Cc2c(F)cccc2Cl)C1=O	–	–
36	C[C@H]1c2ccc(C(=O)NCc3c(F)cc(F)cc3F)cc2N(Cc2c(F)ccc(F)c2Cl)C(=O)N1C	–	–
157	CC1c2ccc(C(=O)NCc3c(F)cc(F)cc3F)cc2N(Cc2c(F)cc(Cl)cc2F)C(=O)N1C (stereo not given)	–	–
60	Cc1ccc(Cl)c(CN2C(=O)N(C)C(C)c3ccc(C(=O)NCc4c(F)cc(F)cc4F)cc32)c1F (stereo not given)	–	–
980	CN1Cc2ccc(C(=O)NCc3c(F)cc(F)cc3F)cc2N(Cc2ccccc2)C1=O	–	–
1760	C[C@H]1c2ccc(C(=O)NCc3c(F)cc(F)cc3F)cc2N(Cc2c(Cl)cn(C)c(=O)c2F)C(=O)N1C	–	–
1040	C[C@H]1c2ccc(C(=O)NCc3c(F)cc(F)cc3F)cc2N(Cc2ncccc2F)C(=O)N1C	–	–

EC50 ([1]; Homo sapiens, HEK-293T) [nM]	SMILES	Activity [2]	also measured
134	Cc1nccc(CN2C(=O)N(C)C(C)c3ccc(C(=O)NCc4c(F)cc(F)cc4F)cc32)c1F (stereo not given)	–	–
135	Cc1ccc(CN2C(=O)N(C)[C@@H](C)c3ccc(C(=O)NCc4c(F)cc(F)cc4F)cc32)c(F)c1	–	–
2600	C[C@@H]1c2ccc(C(=O)NCc3c(F)cc(F)cc3F)cc2N(Cc2c(F)cccc2Cl)C(=O)N1C	–	–
200	CC1c2ccc(C(=O)NCc3c(F)cc(F)cc3F)cc2N(Cc2ccc(F)cc2)C(=O)N1C (stereo not given)	–	–
181	CC1c2ccc(C(=O)NCc3c(F)cc(F)cc3F)cc2N(Cc2c(F)cccc2C(F)(F)F)C(=O)N1C (stereo not given)	–	–
204	CN1Cc2ccc(C(=O)NCc3c(F)cc(F)cc3F)cc2N(Cc2ccc(F)cc2F)C1=O	–	–
270	CC1c2ccc(C(=O)NCc3c(F)cc(F)cc3F)cc2N(Cc2ccccc2)C(=O)N1C (stereo not given)	–	–
39	Cc1ncc(Cl)c(CN2C(=O)N(C)C(C)c3ccc(C(=O)NCc4c(F)cc(F)cc4F)cc32)c1F (stereo not given)	–	–
450	CN1Cc2ccc(C(=O)NCc3ccc(F)cc3F)cc2N(Cc2cc(F)cc(F)c2)C1=O	–	–
91	Cc1cccc(CN2C(=O)N(C)C(C)c3ccc(C(=O)NCc4c(F)cc(F)cc4F)cc32)c1F (stereo not given)	–	–
41	Cc1cccc(F)c1CN1C(=O)N(C)C(C)c2ccc(C(=O)NCc3c(F)cc(F)cc3F)cc21 (stereo not given)	–	–
169	C[C@H]1c2ccc(C(=O)NCc3c(F)cc(F)cc3F)cc2N(Cc2c(F)cncc2F)C(=O)N1C	–	–
37	Cc1ncc(Cl)c(CN2C(=O)N(C)[C@@H](C)c3ccc(C(=O)NCc4c(F)cc(F)cc4F)cc32)c1F	–	–
317	Cc1cccc(F)c1CN1C(=O)N(C)Cc2ccc(C(=O)NCc3c(F)cc(F)cc3F)cc21	–	–
38	Cc1ccc(Cl)c(CN2C(=O)N(C)[C@@H](C)c3ccc(C(=O)NCc4c(F)cc(F)cc4F)cc32)c1F	–	–
3340	CN1Cc2ccc(C(=O)NCc3c(F)cc(F)cc3F)cc2N(Cc2ccncc2)C1=O	–	–
